# Laboratory results published in US20030162751A1, “Pharmaceutical composition comprising 5' monophosphate ester of riboflavin and solubilized riboflavin” (priority 2001, published 2003).
# Read-outs that look alike come from different tables or passages of the source.
# Tests used:
# [1] = Solubilization of lumichrome in the FMN formulation; assay type: physicochemical; conditions: in the current FMN formulation
# [2] = Solubility of riboflavin as a function of pH and % FMN; assay type: physicochemical
# Description: The intrinsic solubility of riboflavin is approximately 70 mcg/ml (see plot below with no FMN present). Precipitation is expected to occur if riboflavin reaches a level above this (due to riboflavin in drug substance or due to degradation to riboflavin with time), and precipitation would be unacceptable for patient safety with intravenous use.
# Solubility of Riboflavin as a function of pH and % FMN [formula]
# At 1% FMN, up to 365 mcg/ml of riboflavin can dissolve.
"solubility ([2]; 1% FMN solution, aqueous with cosolvent or surfactant or cyclodextrin, read-out: riboflavin solubility (amount that can dissolve)) [µg/mL]","solubility ([2]; 5% FMN solution, aqueous with cosolvent or surfactant or cyclodextrin, 5% FMN, pH 7-8, read-out: riboflavin solubility (amount that can dissolve)) [µg/mL]",intrinsic (equilibrium) solubility of riboflavin ([2]; no FMN present),"solubility ([2]; no FMN present, read-out: intrinsic (equilibrium) solubility of riboflavin) [µg/mL]",Compound,solubility of lumichrome relative to equilibrium solubility [1]
–,–,–,–,Cc1cc2nc3[nH]c(=O)[nH]c(=O)c3nc2cc1C [lumichrome],dissolve at levels above the equilibrium solubility
≤ 365,≤ 1320,approximately 70 mcg/ml,~70,Cc1cc2nc3c(=O)[nH]c(=O)nc-3n(C[C@H](O)[C@H](O)[C@H](O)CO)c2cc1C [riboflavin],–
